This is an account of results in ChEMBL document CHEMBL1128155, “Synthesis and structure-activity relationships of 2-(R) and (S) pyrrolidine-modified analogs of the cholinergic channel activator, ABT-418” (Bioorg Med Chem Lett, 1995).

“And” between values parts separate entries of the source, which are not always exact repeats. Equal values may be shown once.

The experiment can be described thus: Displacement of [3H](-)-cytisine from rat brain nicotinic acetylcholine receptors (nAChR). For orientation: In a radioligand displacement assay an active substance lowers the binding of a labelled ligand.
The Ki is a measure of affinity in units of concentration, obtained from inhibition or displacement. For `Cc1cc([C@@H]2C[C@@H](CO)CN2C)on1`, the Ki amounted to 6650 nM.

Compound `Cc1cc([C@@H]2C[C@H](CF)CN2C)on1` showed a Ki of 1680 nM.

`Cc1cc([C@@H]2C[C@@H](C)CN2C)on1` showed a Ki of 19 nM.

Compound `Cc1cc([C@H]2C[C@H](C)CN2C)on1` had a Ki of 946 nM.

Regarding `Cc1cc([C@H]2C[C@@H](CO)CN2C)on1`, the Ki was determined as 10900 nM.

As to `Cc1cc([C@H]2C[C@H](CO)CN2C)on1`, the affinity corresponds to a Ki of 6040 nM.

For `Cc1cc([C@H]2CCCN2C)on1`, the Ki is 7.4 nM.

With `Cc1cc([C@H]2CC[C@H](C)N2C)on1`, the Ki is 71 nM and 166 nM.

Compound `Cc1cc([C@@H]2C[C@@H](CF)CN2C)on1` returned a Ki of 155 nM.

Compound `Cc1cc([C@H]2C[C@H](CF)CN2C)on1` had a Ki of 16900 nM.

In turn, `Cc1cc([C@@H]2C[C@H](CO)CN2C)on1` (single isomer, unassigned) came in with a Ki of 8140 nM.

For the compound `Cc1cc([C@@H]2CCCN2C)on1` [ABT-418], the affinity corresponds to a Ki of 3 nM.
